From patent publication US10717777B2, “Synthetic lung surfactant with enhanced stability and effectiveness” (The Lundquist Institute for Biomedical Innovation at …, priority 2015, dated 2020)

Assay: Surface activity by captive bubble surfactometry (quasi-static cycling)
Assay type: physicochemical
Details: FIG. 2; B-YL, B-LYL, B-AYL at 3% in 5:3:2 (wt:wt:wt) DPPC:POPC:POPG; S-MB, S-MB-DATK, MB-DATK added for comparison
Procedure: In this example, surface activity of the various peptides disclosed in the present disclosure were measured in mixtures of peptides and lipids using captive bubble surfactometry.
This example used peptide concentrations of 2-4% and a lipid mixture consisting of 5:3:2 (wt:wt:wt) DPPC:POPC:POPG. Lipids only were used a negative control and the clinical surfactant Infasurf™ as a positive control.
Low surface tension equals high surface activity.
Minimum tension values during the first 10 cycles of quasi-static cycling on the captive bubble surfactometer are compared with those of lipids only.
FIG. 2 compares 3% of B-YL (SEQ ID NO: 27), B-LYL (SEQ ID NO: 28) and B-AYL (SEQ ID NO: 29) in 5:3:2 (wt:wt:wt) DPPC:POPC:POPG with lipids only (negative control) and the clinical surfactant Infasurf™ (positive control). For comparison the minimum surface tension values of Super Mini-B (S-MB), Super Mini-B-DATK (S-MB-DATK) and Mini-B-DATK (MB-DATK) have been added to the figure.

Sequence	Surface activity (minimum surface tension) as compared to the negative control (lipids only)
CWLCRALIKRIQAMIDATKRMLPQLVCRLVLRCS [Mini-B-DATK, Mini-B analog with DATK turn, added for comparison]	excellent surface activity
FPIPLPYCWLCRALIKRIQAMIDATKRMLPQLVCRLVLRCS [Super Mini-B-DATK, Super Mini-B analog with DATK turn, added for comparison]	excellent surface activity
FPIPLPYCWLCRALIKRIQAMIPKGGRMLPQLVCRLVLRCS [Super Mini-B]	excellent surface activity
FPIPLPYLWLYRALIKRIQALIPKGGRLLPQLVYRLVLRLS [B-LYL]	excellent surface activity
FPIPLPYYWLYRALIKRIQALIPKGGRLLPQLVYRLVLRYS [B-YL]	excellent surface activity
